Test results: US20060263802A1 (priority 2003, published 2006)

What was measured:
Assay type in all cases: binding
[1] = tested on: human monoclonal antibody CRJB
[2] = tested on: human monoclonal antibody CR57
[3] = tested on: human monoclonal antibody CR57; remark: listed apart in the source
[4] = tested on: human monoclonal antibody CRJA
[5] = tested on: human monoclonal antibody CRJA; remark: listed apart in the source
[6] = tested on: human monoclonal antibody CRJB; remark: listed apart in the source

Sequence	Binding of human monoclonal antibody CRJB to linear peptide (PEPSCAN-ELISA signal) [1]	Binding of CR57 to looped/cyclic peptide (PEPSCAN-ELISA signal) [2]	Binding of human monoclonal antibody CR57 to linear peptide (PEPSCAN-ELISA signal) [3]	Binding of CRJA to looped/cyclic peptide (PEPSCAN-ELISA signal) [4]	Binding of human monoclonal antibody CRJA to linear peptide (PEPSCAN-ELISA signal) [5]	Binding of CRJB to looped/cyclic peptide (PEPSCAN-ELISA signal) [6]	Binding of CRJB to linear peptide (PEPSCAN-ELISA signal) [1]	Binding of CR57 (10 μg/ml) to looped/cyclic peptide (PEPSCAN-ELISA signal) [2]	Binding of CR57 to linear peptide (PEPSCAN-ELISA signal) [3]	Binding of CRJA (10 μg/ml) to looped/cyclic peptide (PEPSCAN-ELISA signal) [4]	Binding of CRJA to linear peptide (PEPSCAN-ELISA signal) [5]	Binding of CRJB (10 μg/ml) to looped/cyclic peptide (PEPSCAN-ELISA signal) [6]	Binding of CR57 (10 μg/ml) to looped/cyclic peptide (PEPSCAN-ELISA) [2]	Binding of CRJA (10 μg/ml) to looped/cyclic peptide (PEPSCAN-ELISA) [4]	Binding of CRJB (10 μg/ml) to looped/cyclic peptide (PEPSCAN-ELISA) [6]	binding of antibody CR57 to looped/cyclic peptide (PEPSCAN OD) [2]	binding of antibody CR57 to linear peptide (PEPSCAN OD) [3]
HPLADPSTVFKDGDE	141	111	74	115	100	93											
HSRVFPSGKCSGVAV							118	138	97	113	111	104					
HVNGVFFNGIILGPD							123		97		108		97	105	92		
HYKSVRTWNEILPSK							130		80		87		112	100	101		
IDIHHLSCPNNLVVE							102	55	69	55	61	59					
IEHLVVEELVRKREE							129		90		100		103	112	112		
IFNKTLMEADAHYKS							118		100		87		107	98	86		
IFTNSRGKRASKGSE							125	85	77	88	97	75					
IHHLSCPNNLVVEDE							85	46	37	76	79	71					
IILGPDGNVLIPEMQ							118		85		80		99	107	83		
IISPSVADLDPYDRS							125	115	83	106	98	93					
IKMNGFTCTGVVTEA							108	93	68	99	88	86					
ILAIKMNGFTCTGVV							103	77	79	45	87	72					
ILDKLGPWSPIDIHH							104	80	54	71	56	46					
ILGPDGNVLIPEMQS							134		125		90		143	100	92		
ILPSKGCLRVGGRCH							113		79		112		105	97	91		
IMTTKSVSFRRLSHL							101		43		85		74	63	42		
IPEMQSSLLQQHMEL							128		89		60		66	54	83		
IPLVHPLADPSTVFK							156		96		130		99	106	107		
ISPSVADLDPYDRSL							119	66	50	46	56	64					
IWMPENPRLGMSCDI							110	329	98	152	87	156				clearly bound	
IYTILDKLGPWSPID							97	66	44	78	83	58					
KAYTIFNKTLMEADA							123		101		76		137	104	92		
KCSGVAVSSTYCSTN							130	101	88	78	111	83					
KDGDEAEDFVEVHLP	93	71	72	42	62	71											
KESLVIISPSVADLD							117	86	86	83	123	85					
KFPIYTILDKLGPWS							97	72	71	43	65	64					
KGACKLKLCGVLGLR							111		181		50		78	50	60		bound
KGCLRVGGRCHPHVN							130		68		108		65	102	91		
